The source of these data is patent US12312337B2, “Compounds and methods for treating cancer” (ANTIDOTE IP HOLDINGS, LLC, priority 2019, dated 2025).

For the experiment, the target named is T1, human AhR (Homo sapiens, UniProt P35869).
T1 construct: INDIGO's Aryl Hydrocarbon Receptor (AhR) Reporter Cells include the luciferase reporter gene functionally linked to an AhR-responsive promoter
T1 sequence (P35869 11-848): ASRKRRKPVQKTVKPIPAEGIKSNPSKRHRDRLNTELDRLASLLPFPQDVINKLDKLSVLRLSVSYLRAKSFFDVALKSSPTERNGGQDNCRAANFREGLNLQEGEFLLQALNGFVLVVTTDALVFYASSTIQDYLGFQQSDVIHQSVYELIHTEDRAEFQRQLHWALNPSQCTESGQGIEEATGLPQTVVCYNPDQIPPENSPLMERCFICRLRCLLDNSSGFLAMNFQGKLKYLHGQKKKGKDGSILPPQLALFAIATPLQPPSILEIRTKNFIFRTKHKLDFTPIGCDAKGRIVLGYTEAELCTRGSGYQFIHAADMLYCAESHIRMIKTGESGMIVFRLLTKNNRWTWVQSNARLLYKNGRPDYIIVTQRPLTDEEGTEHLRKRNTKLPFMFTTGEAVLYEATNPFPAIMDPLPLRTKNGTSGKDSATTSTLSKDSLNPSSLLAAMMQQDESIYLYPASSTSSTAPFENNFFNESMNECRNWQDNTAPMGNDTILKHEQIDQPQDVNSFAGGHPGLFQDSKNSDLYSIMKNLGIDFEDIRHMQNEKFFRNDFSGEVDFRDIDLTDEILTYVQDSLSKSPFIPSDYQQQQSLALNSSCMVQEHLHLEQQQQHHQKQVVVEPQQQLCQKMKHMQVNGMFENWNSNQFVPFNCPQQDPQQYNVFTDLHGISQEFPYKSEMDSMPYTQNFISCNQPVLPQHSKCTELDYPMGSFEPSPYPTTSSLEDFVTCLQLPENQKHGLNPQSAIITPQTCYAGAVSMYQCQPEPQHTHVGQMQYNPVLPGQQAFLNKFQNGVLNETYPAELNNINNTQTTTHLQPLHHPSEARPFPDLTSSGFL
The experiment is described as follows: INDIGO AhR Reporter Assay (luciferase reporter cells, antagonist mode). Format: cell-based. Particulars: antagonist mode with 50 nM of VAF347 (AhR agonist); 22-24 hours incubation; luciferase RLU. The source says:
INDIGO's Aryl Hydrocarbon Receptor (AhR) Reporter Cells include the luciferase reporter gene functionally linked to an AhR-responsive promoter. Thus, quantifying changes in luciferase expression in the treated reporter cells provides a sensitive surrogate measure of the changes in AhR activity. The principle application of this reporter assay is in the screening of test samples to quantify any functional activity, either agonist or antagonist, that they may exert against human AhR. Reporter Cells incorporate the cDNA encoding beetle luciferase, a 62 kD protein originating from the North American firefly (Photinus pyralis). Luciferase catalyzes the mono-oxidation of D-luciferin in a Mg^2+-dependent reaction that consumes 02 and ATP as co-substrates, and yields as products oxyluciferin, AMP, PPi, CO2, and photon emission. Luminescence intensity of the reaction is quantified using a luminometer, and is reported in terms of Relative Light Units (RLU's). In brief, 200 μl of Reporter Cells was dispensed into wells of the assay plate and pre-incubated for 4-6 hours. Following the pre-incubation period, culture media were discarded and 200 µl/well of the prepared 1×-concentration treatment media were added. Following 22-24 hours of incubation, treatment media were discarded and Luciferase Detection Reagent was added. The intensity of light emission (in units of “Relative Light Units” (RLU)) from each assay well was quantified using a plate-reading luminometer. The assay was run as a competitive binding assay in the antagonist mode with 50 nM of VAF347, a known AhR agonist.
In Table 4, IC50 values are reported as A, B, C, or D. A represents an IC50 value of less than 100 nM. B represents an IC50 value of equal or greater than 100 nM and less than 500 nM. C represents an IC50 value of equal or greater than 500 nM and less than 1 μM. D represents an IC50 value of equal or greater than 1 μM.
As to `Cc1ccccc1-c1cc(NC(=O)c2ccc3cc(-c4ccc(F)cc4F)cnc3c2)n(C)n1` [Compound 96, 3-(2,4-difluorophenyl)-N-(1-methyl-3-(o-tolyl)-1H-pyrazol-5-yl)quinoline-7-carboxamide], the 50% inhibitory concentration (IC50) – broadly, the concentration needed to halve the response being measured – was < 100 nM.
Compound `CCN(CC)S(=O)(=O)c1cc(NC(=O)c2cc3ncccc3cc2Cl)ccc1F` [Compound 33, 6-Chloro-N-(3-(N,N-diethylsulfamoyl)-4-fluorophenyl)quinoline-7-carboxamide] returned an IC50 of 500 to 1000 nM.
For the compound `Cn1nc(C(F)(F)F)cc1NC(=O)c1ccc2cc(-c3ccccc3)cnc2c1` [Compound 40, N-[1-Methyl-3-(trifluoromethyl)-1H-pyrazol-5-yl]-3-phenylquinoline-7-carboxamide], the IC50 is < 100 nM.
Compound `Cn1nc(C(F)(F)F)cc1NC(=O)c1ccc2cc(-c3ccncc3F)cnc2c1` [Compound 98, 3-(3-fluoropyridin-4-yl)-N-[1-methyl-3-(trifluoromethyl)-1H-pyrazol-5-yl]quinoline-7-carboxamide] displayed an IC50 of 100 to 500 nM.
Take `Cn1nc(C(F)(F)F)cc1NC(=O)c1ccc2cc(-c3ccccn3)cnc2c1` [Compound 100, N-(1-methyl-3-(trifluoromethyl)-1H-pyrazol-5-yl)-3-(pyridine-2-yl)quinoline-7-carboxamide]: the IC50 is < 100 nM.
Turning to `Cn1nc(C(F)(F)F)cc1NC(=O)c1ccc2cc(-c3ccc(F)cc3F)cnc2c1` [Compound 75, 3-(2,4-Difluorophenyl)-N-[1-methyl-3-(trifluoromethyl)-1H-pyrazol-5-yl]quinoline-7-carboxamide], the half-inhibitory concentration (IC50) is < 100 nM.
In the case of `Cn1nc(C(F)(F)F)cc1NC(=O)c1ccc2cc(-c3ccc(F)cc3)cnc2c1` [Compound 61, 3-(4-Fluorophenyl)-N-[1-methyl-3-(trifluoromethyl)-1H-pyrazol-5-yl]quinoline-7-carboxamide], the concentration for half-maximal inhibition (IC50) is < 100 nM.
In the case of `Cn1nc(-c2ccccc2)cc1NC(=O)c1ccc2cc(-c3ccc(F)cn3)cnc2c1` [Compound 128, 3-(5-fluoropyridin-2-yl)-N-(1-methyl-3-phenyl-1H-pyrazol-5-yl) quinoline-7-carboxamide], the 50% inhibitory concentration (IC50) was < 100 nM.
Then `Cn1cc(-c2ccccc2)nc1NC(=O)c1cc2ncccc2cc1Cl` [Compound 90, 6-chloro-N-(1-methyl-4-phenyl-1H-imidazol-2-yl)quinoline-7-carboxamide], with 500 to 1000 nM.
Then `Cn1nc(C(F)(F)F)cc1NC(=O)c1ccc2cc(-c3ncc(F)cc3F)cnc2c1` [Compound 124, 3-(3,5-difluoropyridin-2-yl)-N-[l-methyl-3-(trifluoromethyl)-1H-pyrazol-5-yl]quinoline-7-carboxamide], with < 100 nM.
Regarding `Cn1nc(C(F)(F)F)cc1NC(=O)c1ccc2cc(-c3nccs3)cnc2c1` [Compound 93, N-(1-methyl-3-(trifluoromethyl)-1H-pyrazol-5-yl)-3-(thiazol-2-yl)quinoline-7-carboxamide], the 50% inhibitory concentration (IC50) was < 100 nM.
Turning to `CCN(CC)S(=O)(=O)c1cc(NC(=O)c2cc3cc(-c4ccncc4F)cnc3s2)ccc1Cl` [Compound 145, N-[4-chloro-3-(N,N-diethylsulfamoyl)phenyl]-5-(3-fluoropyridin-4-yl)-thieno[2,3-b]pyridine-2-carboxamide], the 50% inhibitory concentration (IC50) was 100 to 500 nM.
`Cn1nccc1NC(=O)c1ccc2c(Oc3ccccc3)ccnc2c1` [Compound 76, N-(1-Methyl-1H-pyrazol-5-yl)-4-phenoxyquinoline-7-carboxamide]: the IC50 was > 1000 nM.
The compound `Cn1nc(C(F)(F)F)cc1NC(=O)c1ccc2cc(-c3ccccc3Cl)cnc2c1` [Compound 66, 3-(2-Chlorophenyl)-N-[1-methyl-3-(trifluoromethyl)-1H-pyrazol-5-yl]quinoline-7-carboxamide] displayed a half-inhibitory concentration (IC50) of 100 to 500 nM.
On to `Cn1nc(-c2ccccc2F)cc1NC(=O)c1cc2ncccc2cc1Cl` [Compound 29, 6-Chloro-N-[3-(2-fluorophenyl)-1-methyl-1H-pyrazol-5-yl]quinoline-7-carboxamide], for which the IC50 fell in the range of 100 to 500 nM.
For `Cn1nc(C(F)(F)F)cc1NC(=O)c1ccc2cc(-c3cccc(Cl)c3)cnc2c1` [Compound 65, 3-(3-chlorophenyl)-N-[1-methyl-3-(trifluoromethyl)-1H-pyrazol-5-yl]quinoline-7-carboxamide], the IC50 was > 1000 nM.
In the case of `Cn1nc(C(F)(F)F)cc1NC(=O)c1ccc2cc(-c3ncc(F)cn3)cnc2c1` [Compound 123, 3-(5-fluoropyrimidin-2-yl)-N-[1-methyl-3-(trifluoromethyl)-1H-pyrazol-5-yl]quinoline-7-carboxamide], the 50% inhibitory concentration (IC50) is < 100 nM.
Then `Cc1cc(F)ccc1-c1cc(NC(=O)c2cc3ncccc3cc2Cl)n(C)n1` [Compound 57, 6-Chloro-N-(3-(4-fluoro-2-methylphenyl)-1-methyl-1H-pyrazol-5-yl) quinoline-7-carboxamide], with 100 to 500 nM; and `O=C(Nc1ccc(C(F)(F)F)nc1)c1ccc2c(N3CCOCC3)ccnc2c1` [Compound 80, 4-morpholino-N-(6-(trifluoromethyl)pyridin-3-yl)quinoline-7-carboxamide], with > 1000 nM; and `Cn1nc(C(F)(F)F)cc1NC(=O)c1ccc2cc(-c3ccsc3)cnc2c1` [Compound 67, N-[1-Methyl-3-(trifluoromethyl)-1H-pyrazol-5-yl]-3-(thiophen-3-yl)quinoline-7-carboxamide], with < 100 nM.
Regarding `Cn1nc(C(F)(F)F)cc1NC(=O)c1ccc2cc(-c3ccccc3C(F)(F)F)cnc2c1` [Compound 53, N-[1-methyl-3-(trifluoromethyl)-1H-pyrazol-5-yl]-3-[2-(trifluoromethyl)phenyl]quinoline-7-carboxamide], the IC50 fell in the range of 500 to 1000 nM.
Then `Cc1ccccc1-c1cc(NC(=O)c2ccc3cc(-c4ccc(F)cc4)cnc3c2)n(C)n1` [Compound 95, 3-(4-fluorophenyl)-N-(1-methyl-3-(o-tolyl)-1H-pyrazol-5-yl)quinoline-7-carboxamide], with < 100 nM; and `Cn1nc(C(F)(F)F)cc1NC(=O)c1ccc2cc(-c3cccnc3)cnc2c1` [Compound 77, N-[1-methyl-3-(trifluoromethyl)-1H-pyrazol-5-yl]-3-(pyridin-3-yl)quinoline-7-carboxamide], with > 1000 nM; and `Cn1nc(C(F)(F)F)cc1NC(=O)c1ccc2cc(-c3cccc(F)c3)cnc2c1` [Compound 60, 3-(3-Fluorophenyl)-N-[1-methyl-3-(trifluoromethyl)-1H-pyrazol-5-yl]quinoline-7-carboxamide], with > 1000 nM.
For `CN(C)S(=O)(=O)c1cc(NC(=O)c2cc3cc(-c4ccncc4F)cnc3s2)ccc1Cl` [Compound 153, N-[4-chloro-3-(N,N-dimethylsulfamoyl)phenyl]-5-(3-fluoropyridin-4-yl)-thieno[2,3-b]pyridine-2-carboxamide] the value was 500 to 1000 nM.
Then `Cn1nc(C(C)(C)C)cc1NC(=O)c1cc2ncccc2cc1Cl` [Compound 19, N-(3-tert-Butyl-1-methyl-1H-pyrazol-5-yl)-6-chloroquinoline-7-carboxamide], with 100 to 500 nM; and `Cn1nc(-c2ccccc2C(F)(F)F)cc1NC(=O)c1cc2ncccc2cc1Cl` [Compound 44, 6-Chloro-N-(1-methyl-3-(2-(trifluoromethyl)phenyl)-1H-pyrazol-5-yl)quinoline-7-carboxamide], with 100 to 500 nM.
As to `Cn1nc(C(F)(F)F)cc1NC(=O)c1ccc2cc(-c3cccc(C(F)(F)F)c3)cnc2c1` [Compound 55, N-[1-Methyl-3-(trifluoromethyl)-1H-pyrazol-5-yl]-3-[3-(trifluoromethyl)phenyl]quinoline-7-carboxamide], the IC50 was > 1000 nM.
